We go through one compound from paper PMC10725991, “Kaempferol is a novel antiviral agent against channel catfish virus infection through blocking viral attachment and penetration in vitro” (Frontiers in Veterinary Science, 2023).

Assay [1] has as its system CCV in CCO cells. Nature of the assay: Liquid plaque assay. The class given is cell-based, Channel catfish virus (CCV. The note with it: Ictalurid herpesvirus 1; kaempferol 10 μg/mL, 36 h; read-out: inhibition of viral plaque formation. The method, then:
For analyzing the CPE reduction of viral infected CCO cells by kaempferol, the CCO cells were seeded in 24-well plates and cultured overnight at 28°C before infection. Then, the monolayer cells were infected with CCV at 10^3 TCID50/ml for 1 h. Subsequently, the infected cells were treated with kaempferol at different concentrations (2.5, 5, 7.5, 10, 12.5, and 15 μg/mL), respectively. The CCO cells without CCV and drug treatment were set as mock control whereas the virus-infected cells without compound treatment were set as CCV control. Each sample was directly observed and photographed under an inverted microscope at 24 and 36 h post-infection. Meanwhile, the plaque assay was performed as described in previous studies with slight modifications ([34]). Briefly, confluent cells in 24-well plates were infected with CCV (10^3 TCID50/ml) for 1 h. Subsequently, the inoculums were removed and the kaempferol with different concentrations (2.5, 5, 7.5, 10, 12.5, and 15 μg/mL) was added and remained throughout the experiment. The cells were fixed and stained with 1% crystal violet and then photographed at 36 h post-infection.
Figure 4 CPE and plaque reduction in CCO cells treated with kaempferol. (A) The cells were incubated with different concentrations of kaempferol (2.5, 5.0, 7.5, 10, 12.5 and 15.0 μg/mL) after CCV infection 1 h. […]

Assay [2] has as its system CCV in CCO cells. Nature of the assay: Time-of-drug-addition assay, RT-qPCR. The class given is cell-based, Channel catfish virus (CCV, Ictalurid herpesvirus 1). How it is done: The CCO cells seeded in 24-well plates were infected with CCV under five different treatment conditions: (i) Control: CCO cells cultured in the maintenance DMEM media were infected by CCV for 1 h. (ii) Pre-treatment: CCO cells were pre-treated with 15 μg/mL of kaempferol for 2 h before CCV infection. (iii) Virus treatment: CCV was pre-incubated with kaempferol at 37°C for 2 h before being added to CCO cells. (iv) Virus and kaempferol co-treatment: CCO cells were treated in media containing both kaempferol and CCV at 28°C for 1 h. (v) Post-treatment: CCO cells were incubated with CCV at 28°C for 1 h. After that, kaempferol (15 μg/mL) was supplemented at 1, 2, 4, 8, 12, and 24 h post-infection. In all treatment conditions, the unabsorbed CCV was washed off twice by PBS after 1 h of adsortion. The samples were collected to test the CCV gene expression by the RT-qPCR at 24 h and 36 h after the corresponding treatments.
(§1) For RT-qPCR, the total RNA was isolated from CCV-infected cells using RnaExTM (Trizol)^a reagent (GENERAY, China), and reversed transcribed applying a HiScript III RT SuperMix with gDNA wiper (Vazyme, China) following the manufacturer’s instructions. Quantitative PCR was performed with a LightCycler 96 Real-Time PCR Detection System (Roche, USA) using ChamQ Universal SYBR qPCR Master Mix (Vazyme, China) with the following cycle conditions: 95°C for 30 s, followed by 40 cycles of 95°C for 10 s and 60°C for 30 s. To assess the specificity of each amplicon, melt curve analysis was also performed at the end of each thermal profile. The primers used for PCR are listed in Supplementary Table S2. Each individual sample was run in triplicate wells. Fold changes of the selected gene vs 18 s (internal reference) were calculated by the 2^−△△Ct method.
Figure 5 Time of drug-addition assay of kaempferol in CCV inhibition. (A) The schematic diagram of the experimental settings. The CCO cells were infected with CCV for 1 h followed by the indicated kaempferol treatments. Cell lysates at indicated time post-infection were subjected to RT-qPCR. (B,C) The relative expression levels of the CCV ORF 39 and ORF 59 genes with cell-treatment, virus-treatment and co-treatment at 24 h and 36 h post-infection. (D) The relative expression levels of the CCV ORF 39 and ORF 59 genes with post-treatment at 36 h post-infection. The selected gene level was normalized to 18 s (internal reference) using the 2^− ΔΔCT method. Data represent mean ± SD. The p value was determined by *p < 0.05, **p < 0.01.
On the technique in general: Quantitative PCR measures a nucleic acid by following its amplification.

Assay [3] relates to CCV in CCO cells. Nature of the assay: Virus penetration assay. The class given is cell-based, Channel catfish virus (CCV, Ictalurid herpesvirus 1). Conditions: kaempferol 15 μg/mL, 24 h. The method, then:
Confluent CCO cells in 24-well plates were prechilled at 4°C, and then infected with CCV at 4°C for 1 h. After triple washing with pre-cooled PBS, the cells were treated with kaempferol (15 μg/mL) or medium at 28°C for 4 h. The compound dilutions were aspirated and the cells were rinsed with citrate buffer (pH 3.0) in order to inactivate and remove not penetrated virus. After incubated at 28°C for 24 h, the cells were collected for subsequent experiments, including RT-qPCR and viral titer.
Measurement of viral titer was described previously ([5]). In brief, CCO cells were cultured in 96-well plates, and they were infected with 10-fold serially diluted samples that were collected previously. At 72 h post-infection, the cells were directly observed under an inverted microscope. […]
as §1, with “To assess the specificity of each amplicon, melt curve analysis was also performed at the end of each thermal profile. The primers used for PCR are listed in Supplementary Table S2. Each individual sample was run in triplicate wells.” left out, “method. […]” for “method.”

Structures are written as SMILES.

In general, inhibition refers to the share of the control response that was lost under treatment.

`O=c1c(O)c(-c2ccc(O)cc2)oc2cc(O)cc(O)c12` [Kaempferol]: the inhibition at 10 µg/mL in assay [1] was around 100%. Moreover, the “intracellular CCV mRNA level, pre-treatment of cells” value in assay [2] (15 μg/mL for 2 h before CCV infection, 24 h post CCV infection) is recorded as “effectively decreased”. The “intracellular CCV mRNA level, post-treatment” value in assay [2] (15 μg/mL kaempferol supplemented 1-24 h post-infection, read at 36 h) is given as “significantly reduced”. In addition, in assay [2] (15 μg/mL kaempferol with CCV at 28°C for 1 h), the “viral ORF 39 and ORF 59 mRNA levels, co-treatment” value was “failed to decrease”. In addition, the “decrease of viral mRNA level, kaempferol supplemented at 24 h post-infection” value in assay [2] (15 μg/mL, post-treatment, read at 36 h post-infection) was “approximately 40%”. Moreover, the “intracellular CCV mRNA level, virus-treatment” value in assay [2] (CCV pre-incubated with kaempferol 2 h before addition to cells) is reported as “significantly reduced”. Besides, the “down-regulation of viral internalization (CCV ORF 39/ORF 59, RT-qPCR) vs CCV control” value in assay [3] (4 h at 28°C) is “more than 50%”. Further, the “production of intracellular virus (virus titer), penetration assay” value in assay [3] is “significantly reduced”.
